These are literature values, as cited in patent publication EP2392318A1 (Laboratorios Liconsa, S.A., priority 2010, dated 2011).

On to `CCCCc1nc(Cl)c(CO)n1Cc1ccc(-c2ccccc2-c2nn[nH]n2)cc1` [losartan, 2-butyl-4-chloro-1-[[2'-(1H-tetrazol-5-yl)[1,1'-biphenyl]-4-yl]methyl]-1H-imidazole-5-methanol], for which the terminal half-life result (after being orally administered) was “about 2 hours”. For the same compound, the orally absorbed entry (in the gastrointestinal tract) is reported as “about 33%”.
